Source: ChEMBL document CHEMBL1955771, “VX-322: a novel dual receptor tyrosine kinase inhibitor for the treatment of acute myelogenous leukemia” (J Med Chem, 2012)
pIC50, pKi: −log10 of the molar value.

Key:
[1] = molecular target: Vascular endothelial growth factor receptor 2 (Homo sapiens, UniProt P35968); assay: Inhibition of KDR
[2] = molecular target: T1, Receptor-type tyrosine-protein kinase FLT3 (Homo sapiens, UniProt P36888); assay: Inhibition of human recombinant FLT3 by radiometric assay
T1 sequence (P36888 whole entry): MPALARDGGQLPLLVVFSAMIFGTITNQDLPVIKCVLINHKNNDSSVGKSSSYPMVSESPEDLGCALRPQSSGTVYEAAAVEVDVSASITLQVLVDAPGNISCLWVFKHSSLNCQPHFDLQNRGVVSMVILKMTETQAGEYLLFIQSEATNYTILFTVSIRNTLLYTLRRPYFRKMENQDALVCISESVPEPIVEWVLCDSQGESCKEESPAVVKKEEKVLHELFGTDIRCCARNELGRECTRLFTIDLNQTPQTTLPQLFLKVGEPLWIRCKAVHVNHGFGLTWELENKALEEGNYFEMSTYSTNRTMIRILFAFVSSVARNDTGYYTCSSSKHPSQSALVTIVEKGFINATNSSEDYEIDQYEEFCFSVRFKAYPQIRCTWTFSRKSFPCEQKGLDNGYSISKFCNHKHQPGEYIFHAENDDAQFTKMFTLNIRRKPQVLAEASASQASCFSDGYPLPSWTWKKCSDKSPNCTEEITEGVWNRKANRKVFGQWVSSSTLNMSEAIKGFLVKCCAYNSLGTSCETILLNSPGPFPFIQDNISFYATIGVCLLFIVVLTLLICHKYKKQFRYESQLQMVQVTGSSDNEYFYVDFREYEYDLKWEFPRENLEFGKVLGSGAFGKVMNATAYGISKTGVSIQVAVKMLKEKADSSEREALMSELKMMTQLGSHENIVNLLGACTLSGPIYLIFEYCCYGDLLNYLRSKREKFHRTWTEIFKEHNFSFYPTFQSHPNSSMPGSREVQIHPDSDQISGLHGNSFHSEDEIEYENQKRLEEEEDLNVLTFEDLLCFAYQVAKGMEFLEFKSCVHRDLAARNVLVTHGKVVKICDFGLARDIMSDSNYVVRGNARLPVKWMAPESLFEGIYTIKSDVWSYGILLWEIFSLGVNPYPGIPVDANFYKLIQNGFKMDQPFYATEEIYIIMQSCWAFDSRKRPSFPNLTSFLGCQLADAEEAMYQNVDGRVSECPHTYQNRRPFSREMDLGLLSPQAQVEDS

[3] = molecular target: T2, Tyrosine-protein kinase receptor UFO (Homo sapiens, UniProt P30530); assay: Inhibition of AXL
T2 sequence (P30530 whole entry): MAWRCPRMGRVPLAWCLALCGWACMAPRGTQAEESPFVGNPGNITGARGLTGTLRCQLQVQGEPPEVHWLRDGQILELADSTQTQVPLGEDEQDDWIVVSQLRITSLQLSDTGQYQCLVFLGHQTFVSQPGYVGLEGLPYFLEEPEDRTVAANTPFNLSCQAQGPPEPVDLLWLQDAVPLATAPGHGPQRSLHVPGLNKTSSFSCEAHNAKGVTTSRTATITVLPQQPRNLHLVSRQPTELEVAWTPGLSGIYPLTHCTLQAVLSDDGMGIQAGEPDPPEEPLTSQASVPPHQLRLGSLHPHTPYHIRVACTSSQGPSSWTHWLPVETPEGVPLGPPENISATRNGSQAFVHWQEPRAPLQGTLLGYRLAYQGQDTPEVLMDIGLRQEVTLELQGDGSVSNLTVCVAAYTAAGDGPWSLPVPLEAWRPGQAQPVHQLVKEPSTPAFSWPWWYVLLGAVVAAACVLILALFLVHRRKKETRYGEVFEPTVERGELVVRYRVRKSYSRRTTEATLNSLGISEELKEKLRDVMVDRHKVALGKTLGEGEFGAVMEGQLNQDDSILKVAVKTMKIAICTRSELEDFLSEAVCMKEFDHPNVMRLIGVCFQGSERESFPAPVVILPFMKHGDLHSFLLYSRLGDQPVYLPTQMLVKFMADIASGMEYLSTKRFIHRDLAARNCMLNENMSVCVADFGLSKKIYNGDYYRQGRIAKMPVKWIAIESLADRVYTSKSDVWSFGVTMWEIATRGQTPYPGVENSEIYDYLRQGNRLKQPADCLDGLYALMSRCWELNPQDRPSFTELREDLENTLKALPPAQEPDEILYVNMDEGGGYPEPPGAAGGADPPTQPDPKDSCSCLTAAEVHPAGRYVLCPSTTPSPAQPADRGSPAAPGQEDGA

[4] = molecular target: Hepatocyte growth factor receptor (Homo sapiens, UniProt P08581); assay: Inhibition of cMET
[5] = tested on: MV4-11; assay: Induction of apoptosis in human MV4-11 cells at 100 nM assessed as apoptotic cells after 24 hrs by annexin V and propidium iodide staining method (reference value: […]); type: functional
[6] = tested on: MV4-11; assay: Induction of apoptosis in human MV4-11 cells at 100 nM assessed as prenecrotic cells after 24 hrs by annexin V and propidium iodide staining method (reference value: 90.3 %); type: functional
[7] = tested on: MV4-11; assay: Induction of apoptosis in human MV4-11 cells at 100 nM assessed as late apoptotic cells after 48 hrs by annexin V and propidium iodide staining method (reference value: 3.4 %); type: functional
[8] = tested on: Receptor-type tyrosine-protein kinase FLT3 (Homo sapiens), P36888 [UNDEFINED MUTATION]; assay: (§1) Inhibition of FLT3 ITD mutant autophosphorylation in human MV4-11 cells after 1 hr by immunoblot analysis; type: cell-based
[9] = molecular target: T3, Receptor-type tyrosine-protein kinase FLT3 (Homo sapiens, UniProt P36888, ITD); assay: as §1; type: cell-based
[10] = molecular target: T3, Receptor-type tyrosine-protein kinase FLT3; assay: Inhibition of FLT3 ITD mutant mediated ERK 1/2 phosphorylation in human MV4-11 cells by immunoblot analysis; type: cell-based
[11] = tested on: BaF3; assay: Antitumor activity against mouse BA/F3 cells expressing FLT3-ITD mutant xenografted in BALB/c mouse myeloproliferative model assessed as increase in host survival days at 1 mg/kg, po qd relative to control (reference value: 20 days); type: functional, organism-based; set-up: dose 1 mg/kg
[12] = tested on: Mus musculus; assay: Plasma concentration at steady state in BALB/c mouse xenografted with BA/F3 cells expressing FLT3-ITD mutant at 1 mg/kg, po qd; type: ADME, organism-based, BaF3; set-up: dose 1 mg/kg, route oral; details: in vivo
[13] = tested on: Mus musculus; assay: Plasma concentration at steady state in BALB/c mouse xenografted with BA/F3 cells expressing FLT3-ITD mutant at 0.05 mg/kg, po qd; type: ADME, organism-based, BaF3; set-up: dose 0.05 mg/kg, route oral; details: in vivo
[14] = organism: Mus musculus; assay: Toxicity in BALB/c mouse assessed as signs of anemia after 100 days; type: organism-based; details: in vivo, 2400 h
[15] = tested on: BaF3; assay: Antitumor activity against mouse BA/F3 cells expressing FLT3-ITD mutant xenografted in BALB/c mouse myeloproliferative model assessed as increase in host survival days administered by oral gavage qd relative to control; type: functional
[16] = tested on: TF-1; assay: cells; details: Homo sapiens, TF-1, 72 h
Description: Cytotoxicity against human TF1 cells expressing wild type c-KIT assessed as cell viability after 72 hrs by resazurin dye based fluorescence assay

[17] = tested on: TF-1; assay: cells; details: Homo sapiens, TF-1, 72 h; remark: listed apart in the source
Description: Cytotoxicity against human TF1 cells expressing FMS assessed as cell viability after 72 hrs by resazurin dye based fluorescence assay

[18] = tested on: TF-1; assay: cells; details: Homo sapiens, TF-1, 72 h; remark: listed apart in the source
Description: Cytotoxicity against human TF1 cells assessed as cell viability after 72 hrs by resazurin dye based fluorescence assay

Chain of Vascular endothelial growth factor receptor 2 (P35968 whole entry): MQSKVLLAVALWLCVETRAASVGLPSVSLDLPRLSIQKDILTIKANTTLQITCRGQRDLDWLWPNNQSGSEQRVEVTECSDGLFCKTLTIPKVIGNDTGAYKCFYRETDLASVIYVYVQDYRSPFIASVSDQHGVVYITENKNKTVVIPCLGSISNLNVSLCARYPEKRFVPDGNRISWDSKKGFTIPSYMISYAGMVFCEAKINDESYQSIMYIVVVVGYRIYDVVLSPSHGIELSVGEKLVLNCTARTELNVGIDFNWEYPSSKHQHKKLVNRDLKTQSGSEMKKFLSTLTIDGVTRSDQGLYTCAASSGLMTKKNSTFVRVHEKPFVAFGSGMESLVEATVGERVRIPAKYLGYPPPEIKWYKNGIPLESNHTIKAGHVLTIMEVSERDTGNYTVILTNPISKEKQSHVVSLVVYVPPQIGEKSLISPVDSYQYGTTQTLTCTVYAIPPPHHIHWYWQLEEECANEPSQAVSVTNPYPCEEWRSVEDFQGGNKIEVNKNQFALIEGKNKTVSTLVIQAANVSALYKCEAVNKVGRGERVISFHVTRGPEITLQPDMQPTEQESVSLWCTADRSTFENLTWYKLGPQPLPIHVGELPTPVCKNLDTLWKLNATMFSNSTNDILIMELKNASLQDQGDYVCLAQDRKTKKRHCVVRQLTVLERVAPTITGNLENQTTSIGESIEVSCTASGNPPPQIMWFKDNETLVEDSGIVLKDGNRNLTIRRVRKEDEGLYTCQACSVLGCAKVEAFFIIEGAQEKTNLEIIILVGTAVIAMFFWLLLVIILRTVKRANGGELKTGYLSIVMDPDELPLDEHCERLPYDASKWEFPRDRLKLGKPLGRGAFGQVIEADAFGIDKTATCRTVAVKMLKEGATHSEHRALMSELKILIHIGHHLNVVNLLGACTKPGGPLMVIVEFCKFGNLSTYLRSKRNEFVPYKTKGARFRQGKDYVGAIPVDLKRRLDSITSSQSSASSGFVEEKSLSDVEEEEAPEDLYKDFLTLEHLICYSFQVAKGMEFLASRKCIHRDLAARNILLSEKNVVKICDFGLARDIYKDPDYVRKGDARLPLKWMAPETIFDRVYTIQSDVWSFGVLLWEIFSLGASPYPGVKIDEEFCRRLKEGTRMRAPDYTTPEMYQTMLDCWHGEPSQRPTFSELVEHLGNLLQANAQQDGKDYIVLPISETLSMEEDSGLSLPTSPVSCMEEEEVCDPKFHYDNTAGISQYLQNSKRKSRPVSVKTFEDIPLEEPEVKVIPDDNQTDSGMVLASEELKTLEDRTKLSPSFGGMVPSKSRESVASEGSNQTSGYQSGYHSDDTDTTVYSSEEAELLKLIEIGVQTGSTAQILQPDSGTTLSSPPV
Chain of Hepatocyte growth factor receptor (P08581 whole entry): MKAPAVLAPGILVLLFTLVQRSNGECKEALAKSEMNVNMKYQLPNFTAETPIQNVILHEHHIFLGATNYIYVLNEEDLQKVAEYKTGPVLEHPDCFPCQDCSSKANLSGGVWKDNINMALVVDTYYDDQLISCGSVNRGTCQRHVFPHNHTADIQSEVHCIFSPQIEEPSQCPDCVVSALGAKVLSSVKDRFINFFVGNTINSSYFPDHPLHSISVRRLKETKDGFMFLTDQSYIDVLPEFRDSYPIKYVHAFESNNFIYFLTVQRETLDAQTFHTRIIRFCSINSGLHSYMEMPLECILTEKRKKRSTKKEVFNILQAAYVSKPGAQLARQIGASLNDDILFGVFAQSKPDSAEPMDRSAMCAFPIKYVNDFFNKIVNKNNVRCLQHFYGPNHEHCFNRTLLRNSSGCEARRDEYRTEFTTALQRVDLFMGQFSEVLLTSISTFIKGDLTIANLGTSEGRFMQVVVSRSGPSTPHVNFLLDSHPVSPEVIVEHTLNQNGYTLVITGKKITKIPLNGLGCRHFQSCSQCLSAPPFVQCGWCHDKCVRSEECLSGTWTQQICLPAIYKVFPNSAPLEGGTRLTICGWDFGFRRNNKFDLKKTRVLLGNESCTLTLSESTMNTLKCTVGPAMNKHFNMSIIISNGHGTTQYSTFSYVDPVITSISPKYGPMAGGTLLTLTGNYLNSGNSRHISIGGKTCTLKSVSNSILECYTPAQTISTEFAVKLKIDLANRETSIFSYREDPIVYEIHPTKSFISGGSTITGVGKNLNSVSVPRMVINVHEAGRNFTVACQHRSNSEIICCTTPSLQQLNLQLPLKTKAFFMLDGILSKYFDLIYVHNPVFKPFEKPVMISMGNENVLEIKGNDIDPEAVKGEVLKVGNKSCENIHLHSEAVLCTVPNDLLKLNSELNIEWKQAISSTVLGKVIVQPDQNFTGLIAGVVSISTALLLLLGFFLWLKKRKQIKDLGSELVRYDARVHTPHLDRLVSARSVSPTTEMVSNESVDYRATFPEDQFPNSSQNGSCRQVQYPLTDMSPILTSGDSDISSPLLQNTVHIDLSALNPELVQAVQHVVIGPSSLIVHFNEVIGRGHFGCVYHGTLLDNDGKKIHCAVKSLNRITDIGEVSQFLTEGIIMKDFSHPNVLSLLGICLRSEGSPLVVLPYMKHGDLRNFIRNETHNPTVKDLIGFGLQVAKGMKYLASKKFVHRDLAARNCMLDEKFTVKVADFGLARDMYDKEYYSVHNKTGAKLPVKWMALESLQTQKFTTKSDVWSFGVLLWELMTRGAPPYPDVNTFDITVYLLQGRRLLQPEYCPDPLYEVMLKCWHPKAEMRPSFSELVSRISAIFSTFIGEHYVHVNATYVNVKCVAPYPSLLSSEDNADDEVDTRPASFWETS

## Nc1nc(Nc2ccc([C@H]3CC[C@H](N4CCOCC4)CC3)cc2)nn1-c1ccccn1
[1]
  pKi: 7.07
[2]
  pKi: 9.77
[3]
  pKi: 7.40
[4]
  pKi: 6.89
[5]
  Activity: 8.4%
[6]
  Activity: 54.5%
[7]
  Activity: 42.8%
[8]
  inhibition: Dose-dependent effect
[9]
  pIC50: 9.40
[10]
  pIC50: 8.89
[11]
  MSD: 34 days
[12]
  Cpss: 91 ng/mL
[13]
  Cpss: 4 ng/mL
[14]
  Activity: Non-toxic
[15]
  Activity: Dose-dependent effect
[16]
  pIC50: 8.80
[17]
  pIC50: < 5.40
[18]
  pIC50: < 5.40
